Patent publication US20250230193A1, “CYCLIC COMPOUND HAVING SELECTIVE KRAS INHIBITORY EFFECT ON HRAS AND NRAS” (CHUGAI SEIYAKU KABUSHIKI KAISHA, priority 2022, published 2025)

Tests used:
[1] = target: GDP-bound HRAS wild-type protein (Homo sapiens, UniProt P01112); test: Binding to HRAS by surface plasmon resonance (SPR), Single Cycle Kinetics; settings: KD ratio HRAS/KRAS, SPR, GDP-bound wild-type proteins
[2] = target: GDP-bound NRAS wild-type protein (Homo sapiens, UniProt P01111); test: Binding to NRAS by surface plasmon resonance (SPR), Single Cycle Kinetics; settings: KD ratio NRAS/KRAS, SPR, GDP-bound wild-type proteins
Sequence of GDP-bound NRAS wild-type protein (P01111 whole entry): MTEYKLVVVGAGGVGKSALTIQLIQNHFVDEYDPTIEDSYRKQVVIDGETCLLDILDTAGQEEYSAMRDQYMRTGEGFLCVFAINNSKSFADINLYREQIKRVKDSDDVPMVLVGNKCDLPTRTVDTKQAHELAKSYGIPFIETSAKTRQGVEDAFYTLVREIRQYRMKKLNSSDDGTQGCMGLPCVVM

Sequence of GDP-bound HRAS wild-type protein (P01112 whole entry): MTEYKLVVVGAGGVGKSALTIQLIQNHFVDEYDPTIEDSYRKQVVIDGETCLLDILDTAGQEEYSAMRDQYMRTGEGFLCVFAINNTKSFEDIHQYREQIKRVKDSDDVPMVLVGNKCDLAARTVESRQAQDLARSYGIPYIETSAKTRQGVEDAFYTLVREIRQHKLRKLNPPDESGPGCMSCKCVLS

## CCCO[C@@H]1C[C@H]2C(=O)NC3(CC(C)(C)C3)C(=O)N(C)[C@@H](C3CCCC3)C(=O)N(C)[C@H](C(=O)N(C)CC)CC(=O)N(C)[C@H]3CCCc4ccc(cc4)C[C@@H](C(=O)N(C)CC(=O)N[C@@H](CCc4ccc(C(F)(F)F)c(OC)c4)C(=O)N2C1)N1CC/C=C\C[C@@H](C1=O)N(C)C(=O)CN(C1CC1)C(=O)[C@H]([C@@H](C)CC)NC3=O [PP3088]
[1]
  HRAS/KRAS (ratio of KD value with respect to GDP-bound HRAS wild-type protein to KD value with respect to KRAS): B (a compound having 3 or more and less than 10 is denoted as B)
[2]
  NRAS/KRAS (ratio of KD value with respect to GDP-bound NRAS wild-type protein to KD value with respect to KRAS): B (a compound having 3 or more and less than 10 is denoted as B)

## CCCO[C@@H]1C[C@H]2C(=O)NC3(CC(C)(C)C3)C(=O)N(C)[C@@H](C3CCCC3)C(=O)N(C)[C@H](C(=O)N(C)CC)CC(=O)N(C)[C@H]3CCCc4ccc(cc4)C[C@@H](C(=O)N(C)CC(=O)N[C@@H](CCc4ccc(Cl)c(Cl)c4)C(=O)N2C1)N1CC/C=C\C[C@@H](C1=O)N(C)C(=O)CN(C)C(=O)[C@H]([C@@H](C)CC)NC3=O [PP3089]
[1]
  HRAS/KRAS (ratio of KD value with respect to GDP-bound HRAS wild-type protein to KD value with respect to KRAS): B (a compound having 3 or more and less than 10 is denoted as B)
[2]
  NRAS/KRAS (ratio of KD value with respect to GDP-bound NRAS wild-type protein to KD value with respect to KRAS): B (a compound having 3 or more and less than 10 is denoted as B)

## CCO[C@@H]1C[C@H]2C(=O)N(C)C3(CC(C)(C)C3)C(=O)N(C)[C@@H](C3CCCC3)C(=O)N(C)[C@H](C(=O)N(C)C)CC(=O)N(C)[C@H]3CCCCCCc4ccc(cc4)C[C@@H](C(=O)N(C)CC(=O)N[C@@H](CCc4ccc(C(F)(F)F)c(OC)c4)C(=O)N2C1)N1CC/C=C\C[C@@H](C1=O)N(C)C(=O)CN(C)C(=O)[C@H]([C@@H](C)CC)NC3=O [PP3090]
[1]
  HRAS/KRAS (ratio of KD value with respect to GDP-bound HRAS wild-type protein to KD value with respect to KRAS): B (a compound having 3 or more and less than 10 is denoted as B)
[2]
  NRAS/KRAS (ratio of KD value with respect to GDP-bound NRAS wild-type protein to KD value with respect to KRAS): A (a compound having 10 or more and less than 20 is denoted as A)

## CCO[C@@H]1C[C@H]2C(=O)N(C)C3(CC(C)(C)C3)C(=O)N(C)[C@@H](C3CCCC3)C(=O)N(C)[C@H](C(=O)N(C)C)CC(=O)N(C)[C@H]3CCCCCc4ccc(cc4)C[C@@H](C(=O)N(C)CC(=O)N[C@@H](CCc4ccc(C(F)(F)F)c(OC)c4)C(=O)N2C1)N1CC/C=C\C[C@@H](C1=O)N(C)C(=O)CN(C)C(=O)[C@H]([C@@H](C)CC)NC3=O [PP3091]
[1]
  HRAS/KRAS (ratio of KD value with respect to GDP-bound HRAS wild-type protein to KD value with respect to KRAS): B (a compound having 3 or more and less than 10 is denoted as B)
[2]
  NRAS/KRAS (ratio of KD value with respect to GDP-bound NRAS wild-type protein to KD value with respect to KRAS): A (a compound having 10 or more and less than 20 is denoted as A)

## CCCO[C@@H]1C[C@H]2C(=O)NC3(CC(C)(C)C3)C(=O)N(C)[C@@H](C3CCCC3)C(=O)N(C)[C@H](C(=O)N(C)C)CC(=O)N(C)[C@H]3CCCCc4ccc(cc4)C[C@@H](C(=O)N(C)CC(=O)N[C@@H](CCc4ccc(Cl)c(Cl)c4)C(=O)N2C1)N1CC/C=C\C[C@@H](C1=O)N(C)C(=O)CN(C)C(=O)[C@H]([C@@H](C)CC)NC3=O [PP3092]
[1]
  HRAS/KRAS (ratio of KD value with respect to GDP-bound HRAS wild-type protein to KD value with respect to KRAS): A (a compound having 10 or more and less than 20 is denoted as A)
[2]
  NRAS/KRAS (ratio of KD value with respect to GDP-bound NRAS wild-type protein to KD value with respect to KRAS): A (a compound having 10 or more and less than 20 is denoted as A)

## CCCO[C@@H]1C[C@H]2C(=O)NC3(CC(C)(C)C3)C(=O)N(C)[C@@H](C3CCCC3)C(=O)N(C)[C@H](C(=O)N3CCCC3)CC(=O)N(C)[C@H]3CCCCc4ccc(cc4)C[C@@H](C(=O)N(C)CC(=O)N[C@@H](CCc4ccc(C(F)(F)F)c(OC)c4)C(=O)N2C1)N1CC/C=C\C[C@@H](C1=O)N(C)C(=O)CN(C)C(=O)[C@H]([C@@H](C)CC)NC3=O [PP3094, (1S,7S,11R,13S,19S,22S,26S,29S,35S,37Z)-19-cyclopentyl-7-[2-[3-methoxy-4-(trifluoromethyl)phenyl]ethyl]-3,3′,3′,18,21,25,31,34-octamethyl-29-[(1S)-1-methylpropyl]-11-propoxy-22-(pyrrolidine-1-carbonyl)spiro[3,6,9,15,18,21,25,28,31,34,41-undecazapentacyclo[24.15.9.2^43,46.1^35,41.0^9,13]tripentaconta-37,43(52),44,46(51)-tetraene-16,1′-cyclobutane]-2,5,8,14,17,20,24,27,30,33,53-undecone]
[1]
  HRAS/KRAS (ratio of KD value with respect to GDP-bound HRAS wild-type protein to KD value with respect to KRAS): B (a compound having 3 or more and less than 10 is denoted as B)
[2]
  NRAS/KRAS (ratio of KD value with respect to GDP-bound NRAS wild-type protein to KD value with respect to KRAS): A (a compound having 10 or more and less than 20 is denoted as A)

## CCC[C@H]1C(=O)N[C@@H]([C@@H](C)CC)C(=O)N(C2CC2)CC(=O)N(C)[C@H]2C/C=C\CCN(C2=O)[C@@H](Cc2ccc(C(F)(F)F)cc2)C(=O)N(C)CC(=O)N[C@@H](CCc2ccc(C(F)(F)F)c(OC)c2)C(=O)N2C[C@H](OCC)C[C@H]2C(=O)N(C)C2(CCC2)C(=O)N(C)[C@@H](C2CCCC2)C(=O)N(C)[C@H](C(=O)N2CCCCC2)CC(=O)N1C [PP3095, (2S,8S,12R,14S,20S,23S,27S,30S,36S,38Z)-20-cyclopentyl-32-cyclopropyl-12-ethoxy-8-[2-[3-methoxy-4-(trifluoromethyl)phenyl]ethyl]-4,16,19,22,26,35-hexamethyl-30-[(1S)-1-methylpropyl]-23-(piperidine-1-carbonyl)-27-propyl-2-[[4-(trifluoromethyl)phenyl]methyl]spiro[1,4,7,10,16,19,22,26,29,32,35-undecazatricyclo[34.5.1.0^10,14]dotetracont-38-ene-17,1′-cyclobutane]-3,6,9,15,18,21,25,28,31,34,42-undecone]
[1]
  HRAS/KRAS (ratio of KD value with respect to GDP-bound HRAS wild-type protein to KD value with respect to KRAS): A (a compound having 10 or more and less than 20 is denoted as A)
[2]
  NRAS/KRAS (ratio of KD value with respect to GDP-bound NRAS wild-type protein to KD value with respect to KRAS): A (a compound having 10 or more and less than 20 is denoted as A)

## CCC[C@H]1C(=O)N[C@@H]([C@@H](C)CC)C(=O)N(C2CC2)CC(=O)N(C)[C@H]2C/C=C\CCN(C2=O)[C@@H](Cc2ccc(C(F)(F)F)cc2)C(=O)N(C)CC(=O)N[C@@H](CCc2ccc(C(F)(F)F)c(OC)c2)C(=O)N2C[C@H](OCC)C[C@H]2C(=O)N(C)C2(CCC2)C(=O)N(C)[C@@H](C2CCCC2)C(=O)N(C)[C@H](C(=O)N2CCCC2)CC(=O)N1C [PP3097]
[1]
  HRAS/KRAS (ratio of KD value with respect to GDP-bound HRAS wild-type protein to KD value with respect to KRAS): A (a compound having 10 or more and less than 20 is denoted as A)
[2]
  NRAS/KRAS (ratio of KD value with respect to GDP-bound NRAS wild-type protein to KD value with respect to KRAS): A (a compound having 10 or more and less than 20 is denoted as A)

## CCC[C@H]1C(=O)N[C@@H]([C@@H](C)CC)C(=O)N(C2CC2)CC(=O)N(C)[C@H]2C/C=C\CCN(C2=O)[C@@H](Cc2ccc(C)cc2)C(=O)N(C)CC(=O)N[C@@H](CCc2ccc(C(F)(F)F)c(OC)c2)C(=O)N2C[C@H](OCC)C[C@H]2C(=O)N(C)C2(CCC2)C(=O)N(C)[C@@H](C2CCCC2)C(=O)N(C)[C@H](C(=O)N2CCCC2)CC(=O)N1C [PP3098, (2S,8S,12R,14S,20S,23S,27S,30S,36S,38Z)-20-cyclopentyl-32-cyclopropyl-12-ethoxy-8-[2-[3-methoxy-4-(trifluoromethyl)phenyl]ethyl]-4,16,19,22,26,35-hexamethyl-30-[(1S)-1-methylpropyl]-27-propyl-2-(p-tolylmethyl)-23-(pyrrolidine-1-carbonyl)spiro[1,4,7,10,16,19,22,26,29,32,35-undecazatricyclo[34.5.1.0^10,14]dotetracont-38-ene-17,1′-cyclobutane]-3,6,9,15,18,21,25,28,31,34,42-undecone]
[1]
  HRAS/KRAS (ratio of KD value with respect to GDP-bound HRAS wild-type protein to KD value with respect to KRAS): A (a compound having 10 or more and less than 20 is denoted as A)
[2]
  NRAS/KRAS (ratio of KD value with respect to GDP-bound NRAS wild-type protein to KD value with respect to KRAS): A (a compound having 10 or more and less than 20 is denoted as A)

## CCC[C@H]1C(=O)N[C@@H]([C@@H](C)CC)C(=O)N2CCC[C@H]2C(=O)N(C)[C@H]2C/C=C\CCN(C2=O)[C@@H](Cc2ccc(C(F)(F)F)cc2)C(=O)N(C)CC(=O)N[C@@H](CCc2ccc(C(F)(F)F)c(OC)c2)C(=O)N2C[C@H](OCC)C[C@H]2C(=O)N(C)C2(CCC2)C(=O)N(C)[C@@H](C2CCCC2)C(=O)N(C)[C@H](C(=O)N2CCCCC2)CC(=O)N1C [PP3099]
[1]
  HRAS/KRAS (ratio of KD value with respect to GDP-bound HRAS wild-type protein to KD value with respect to KRAS): A (a compound having 10 or more and less than 20 is denoted as A)
[2]
  NRAS/KRAS (ratio of KD value with respect to GDP-bound NRAS wild-type protein to KD value with respect to KRAS): A (a compound having 10 or more and less than 20 is denoted as A)

## CCC[C@H]1C(=O)N[C@@H]([C@@H](C)CC)C(=O)N2CCC[C@H]2C(=O)N(C)[C@H]2C/C=C\CCN(C2=O)[C@@H](Cc2ccc(C)cc2)C(=O)N(C)CC(=O)N[C@@H](CCc2ccc(C(F)(F)F)c(OC)c2)C(=O)N2C[C@H](OCC)C[C@H]2C(=O)N(C)C2(CCC2)C(=O)N(C)[C@@H](C2CCCC2)C(=O)N(C)[C@H](C(=O)N2CCCCC2)CC(=O)N1C [PP3100, (1S,4S,10S,13S,17S,20S,26S,28R,32S,38S,42Z)-20-cyclopentyl-28-ethoxy-32-[2-[3-methoxy-4-(trifluoromethyl)phenyl]ethyl]-2,14,18,21,24,36-hexamethyl-10-[(1S)-1-methylpropyl]-17-(piperidine-1-carbonyl)-13-propyl-38-(p-tolylmethyl)spiro[2,8,11,14,18,21,24,30,33,36,39-undecazatetracyclo[37.5.1.0^4,8.0^26,30]pentatetracont-42-ene-23,1′-cyclobutane]-3,9,12,15,19,22,25,31,34,37,45-undecone]
[1]
  HRAS/KRAS (ratio of KD value with respect to GDP-bound HRAS wild-type protein to KD value with respect to KRAS): B (a compound having 3 or more and less than 10 is denoted as B)
[2]
  NRAS/KRAS (ratio of KD value with respect to GDP-bound NRAS wild-type protein to KD value with respect to KRAS): A (a compound having 10 or more and less than 20 is denoted as A)

## CCC[C@H]1C(=O)N[C@@H]([C@@H](C)CC)C(=O)N2CCC[C@H]2C(=O)N(C)[C@H]2C/C=C\CCN(C2=O)[C@@H](Cc2ccc(C(F)(F)F)cc2)C(=O)N(C)CC(=O)N[C@@H](CCc2ccc(C(F)(F)F)c(OC)c2)C(=O)N2C[C@H](OCC)C[C@H]2C(=O)N(C)C2(CCC2)C(=O)N(C)[C@@H](C2CCCC2)C(=O)N(C)[C@H](C(=O)N2CCCC2)CC(=O)N1C [PP3101]
[1]
  HRAS/KRAS (ratio of KD value with respect to GDP-bound HRAS wild-type protein to KD value with respect to KRAS): A (a compound having 10 or more and less than 20 is denoted as A)
[2]
  NRAS/KRAS (ratio of KD value with respect to GDP-bound NRAS wild-type protein to KD value with respect to KRAS): A (a compound having 10 or more and less than 20 is denoted as A)
